{"source": "patent US20250188041A1", "about": "“NEW COMPOUNDS AND TREATMENT OF RENAL CELL CARCINOMA” (Trustlife Global Inc., priority 2022, published 2025)", "type_in_all_cases": "cell-based, Human", "key": {"RRM2": {"system": "RRM2", "experiment": "Western blot, RRM2 protein level in Caki-1 treated with repurposed drugs", "settings": "24 h, vs DMSO control", "description": "(§1) Cell culture 1: Human clear cell renal cell carcinoma (ccRCC) cell line Caki-1 was obtained from the Karolinska Institute of Environmental Medicine, Stockholm, Sweden, derived from a ccRCC patient. The cells were cultured in RPMI 1640 medium with 10% fetal bovine serum (FBS) and 1% penicillin/streptomycin. The cells were cultivated at 37° C. in a humidified incubator with 5% CO2. TG-101209, NVP-TAE684, MK-0752, actinomycin-d, and panobinostat were purchased from Selleckchem ([…], […], […], […], […], Selleckchem, Houston, TX, USA), and withaferin-a was purchased from Sigma (W4394, Sigma-Aldrich, Saint Louis, MO, USA). These drugs were dissolved in DMSO. The cells (from cell culture 1) were seeded in a 96-well plate at 20×10^3 cells per well. After seeding for 24 h, the cells were treated for 24 h with the target drugs: TG-101209 (6 nM), NVP-TAE684 (3 nM), MK-0752 (5 nM), withaferin-a (4 uM), actinomycin-d (0.3 nM), and panobinostat (5 nM). The cells in the negative control group were only treated by DMSO for one day. The cells were washed with phosphate-buffered saline (PBS) and lysed with CelLytic M ([…], Sigma-Aldrich, Saint Louis, MO, USA) lysis buffer containing protease inhibitors. The lysates were centrifuged at 12 000 rpm for 5 min, and the supernatant was collected. The proteins were separated by Mini-PROTEAN® TGXTM Precast Gels (BioRad, Berkeley, CA, USA) and transferred to a Trans-Blot Turbo Mini 0.2 um PVDF Transfer Packs membrane (BioRad, Berkeley, CA, USA) by using Trans-Blot® TurboTM Transfer System (Bio-Rad, Berkeley, CA, USA). The antibodies for BUB1B (HPA008419), RRM2 (HPA056994), CEP55 (HPA023430), ASF1B(HPA069385), CCNB2 (HPA008873), and GAPDH (sc47724, Santa Cruz Biotechnology, Inc.) were used for primary immunoblotting. All the antibodies were diluted at 1:10000 concentration. The membranes were incubated in primary antibody solution overnight at 4° C. with gentle rocking. […] The protein bands were detected with ImageQuanattm LAS 500 (29-0050-63, GE) automatic exposure procedure or 6 min exposure."}, "Caki-1": {"system": "Caki-1", "experiment": "CCK-8 cell viability assay of drug-treated Caki-1", "settings": "24 h, vs DMSO control", "description": "Cell culture 1: Human clear cell renal cell carcinoma (ccRCC) cell line Caki-1 was obtained from the Karolinska Institute of Environmental Medicine, Stockholm, Sweden, derived from a ccRCC patient. The cells were cultured in RPMI 1640 medium with 10% fetal bovine serum (FBS) and 1% penicillin/streptomycin. The cells were cultivated at 37° C. in a humidified incubator with 5% CO2. TG-101209, NVP-TAE684, MK-0752, actinomycin-d, and panobinostat were purchased from Selleckchem ([…], […], […], […], […], Selleckchem, Houston, TX, USA), and withaferin-a was purchased from Sigma (W4394, Sigma-Aldrich, Saint Louis, MO, USA). These drugs were dissolved in DMSO. The cells (from cell culture 1) were seeded in a 96-well plate at 20×10^3 cells per well. After seeding for 24 h, the cells were treated for 24 h with the target drugs: TG-101209 (6 nM), NVP-TAE684 (3 nM), MK-0752 (5 nM), withaferin-a (4 uM), actinomycin-d (0.3 nM), and panobinostat (5 nM). The cells in the negative control group were only treated by DMSO for one day. Cell proliferation was detected by Cell Counting Kit-8 (CCK-8) assay. The 10 μl of CCK-8 reagent (1:10) was added to each well of 96-well plate with siRNA transfected cells or drug-treated cells by manufacturer's instruction. The 96-well plate was incubated at 37° C. for 2 hours and then measured absorbance at 450 nm using a microplate reader (Hidex Sense Beta Plus)."}, "BUB1B [1]": {"system": "BUB1B", "experiment": "Western blot, BUB1B protein level in Caki-1 treated with repurposed drug", "settings": "Caki-1, 6 nM, 24 h, compared to negative control (DMSO)", "description": "as §1, with “inhibitors.” for “inhibitors. The lysates were centrifuged at 12 000 rpm for 5 min, and the supernatant was collected. The proteins were separated by Mini-PROTEAN® TGXTM Precast Gels (BioRad, Berkeley, CA, USA) and transferred to a Trans-Blot Turbo Mini 0.2 um PVDF Transfer Packs membrane (BioRad, Berkeley, CA, USA) by using Trans-Blot® TurboTM Transfer System (Bio-Rad, Berkeley, CA, USA). The antibodies for BUB1B (HPA008419), RRM2 (HPA056994), CEP55 (HPA023430), ASF1B(HPA069385), CCNB2 (HPA008873), and GAPDH (sc47724, Santa Cruz Biotechnology, Inc.) were used for primary immunoblotting. All the antibodies were diluted at 1:10000 concentration. The membranes were incubated in primary antibody solution overnight at 4° C. with gentle rocking.”"}, "Caki-1 cells": {"system": "Caki-1 cells", "experiment": "MTT cell viability assay of Caki-1 treated with TG-101209 and its alternatives", "description": "(§2) Cell culture 2: Caki-1 was purchased from CLS Cell Lines Service (Germany). The cells were maintained in McCoy's SA (modified) medium (16600082, Thermo Fisher Scientific, USA) and supplemented with 10% fetal bovine serum (FBS, F7524, Sigma-Aldrich), 1% Penicillin/Streptomycin (P4333, Sigma-Aldrich).\nThe cytotoxic effects of the TG-101209 and its alternatives on the Caki-1 cells were tested by MTT (Thiazolyl Blue Tetrazolium Bromide) method. 1.5×10^4 cells were seeded per well in a 96-well plate in 100 μL growth media. […] After the incubation period, 5 mg/ml MTT (M2128, Sigma-Aldrich) solution in PBS (10 μL) was added to each well. After 1 hour, the MTT solution and all media were removed from the wells. 100 μl of DMSO was added and mixed to dissolve the formazan crystals. Cell viability was analysed by measuring the absorbance of the dissolved formazan at a wavelength of 570 nm with a microplate reader (Hidex Sense Beta Plus)."}, "BUB1B [2]": {"system": "BUB1B", "experiment": "Western blot, BUB1B expression in Caki-1 treated with TG-101209 alternatives", "settings": "Caki-1, 5 μM of target drug, 1 day (FIG. 41; method says 2 days)", "description": "as §2\nThe target drugs developed as alternatives to TG-101209, were dissolved in 0.1% DMSO (41639, Sigma-Aldrich). Caki-1 cells from cell culture 2 were seeded in a 6-well plate at 3×10^5 cells per well. […]\nThe cells were washed with PBS solution and then lysed with CelLytic M (C2978, Sigma-Aldrich) lysis buffer containing protease inhibitors (11836170001, Roche). The cell lysates were centrifuged at 12 000 rpm for 10 min and supernatants were collected. Protein Assay Dye Reagent (5000006, Bio-Rad) was used for the determination of protein concentration. The absorbance of the proteins was measured spectrophotometrically at 595 nm by a microplate reader (Hidex Sense Beta Plus). Protein electrophoresis was performed using Mini-PROTEAN® TGX™ Precast Gels (4561086, Bio-Rad) and then the separated proteins were transferred to a Trans-Blot Turbo Mini 0.2 um PVDF Transfer Packs membrane (1704158, Bio-Rad) by using Trans-Blot® Turbo™ Transfer System (Bio-Rad). The membrane was blocked with 5% skim milk for 30 min at 4° C. with gentle rocking. After blocking, the membrane was treated with primary antibodies: Anti-BUB1B (HPA008419, Human Protein Atlas, Sweden) and Anti-Beta actin (ab8227, Abcam) as a loading control overnight at 4° C. on a rocking platform. After the treatment of primary antibodies, the membrane was washed three times with TBS-T buffer (A09-7500-100, Medicago). Then, Goat anti-Rabbit IgG-HRP (ab205718, Abcam) was treated as the secondary antibody for 30 min at 4° C. with gentle rocking."}}, "note": "Entries after “also recorded” stand apart in the source; their conditions may differ. *1 amine or outer side, *2 acyl side, *3 side chain or, on linkers, in order; H or OH if unused. Where a SMILES comes first, the peptide text is derived from it. Bridges are numbered along the chain shown (N, C = ends). Roman numbers before positions name the chains, in order. [ ]: non-standard residue; d: D form. Actinocin(9to1) = Cc1c2oc3c(C)ccc(C(=O)[*:1])c3nc-2c(C(=O)[*:2])c(N)c1=O; NMeV = CN[C@H](C(=O)O)C(C)C; Sar = CNCC(=O)O"}
{"smiles": "Cc1c2oc3c(C)ccc(C(=O)N[C@@H]4C(=O)N[C@H](C(C)C)C(=O)N5CCC[C@H]5C(=O)N(C)CC(=O)N(C)[C@@H](C(C)C)C(=O)O[C@@H]4C)c3nc-2c(C(=O)N[C@@H]2C(=O)N[C@H](C(C)C)C(=O)N3CCC[C@H]3C(=O)N(C)CC(=O)N(C)[C@@H](C(C)C)C(=O)O[C@@H]2C)c(N)c1=O", "note": "[actinomycin-d] (I: T[dV]P[Sar][NMeV] / II: T[dV]P[Sar][NMeV]; ester I:1-I:C, II:1-II:C; linker I:N-II:N via Actinocin(9to1))", "values": [{"measurement": "protein level of RRM2", "setting": "RRM2; Caki-1, 0.3 nM", "value": "does not work for inhibiting RRM2"}]}
{"smiles": "COc1cc(N2CCC(N3CCN(C)CC3)CC2)ccc1Nc1ncc(Cl)c(Nc2ccccc2S(=O)(=O)C(C)C)n1", "note": "[NVP-TAE684]", "values": [{"measurement": "protein level of RRM2", "setting": "RRM2; Caki-1, 3 nM", "value": "significantly suppressed"}, {"measurement": "cell viability", "setting": "Caki-1; Caki-1, CCK-8, 3 nM", "value": "significantly reduced"}]}
{"smiles": "CC1=C(CO)C(=O)O[C@@H]([C@@H](C)[C@H]2CC[C@H]3[C@@H]4C[C@H]5O[C@]56[C@@H](O)C=CC(=O)[C@]6(C)[C@H]4CC[C@]23C)C1", "note": "[withaferin-a]", "values": [{"measurement": "protein level of RRM2", "setting": "RRM2; Caki-1, 4 uM", "value": "significantly suppressed"}, {"measurement": "cell viability", "setting": "Caki-1; Caki-1, CCK-8, 4 uM", "value": "significantly reduced"}]}
{"smiles": "Cc1cnc(Nc2ccc(N3CCN(C)CC3)cc2)nc1Nc1cccc(S(=O)(=O)NC(C)(C)C)c1", "note": "[TG-101209, reference compound]", "values": [{"measurement": "protein level of BUB1B", "setting": "BUB1B [1]", "value": "significantly decreased; also recorded: significantly reduced"}, {"measurement": "cell viability (MTT assay)", "setting": "Caki-1 cells; Caki-1, 10 μM, 1 day", "value": "most profound effect on the cell viability"}, {"measurement": "IC50", "setting": "Caki-1 cells; FIG. 43, assay not named, presumably Caki-1 cell viability", "value": "~3", "unit": "µM"}, {"measurement": "Ranking, Cell viability (%)", "setting": "Caki-1 cells; top five target drugs, MTT assay, 10 μM, 1 day, rank 1 = greatest reduction", "value": 5}, {"measurement": "cell viability", "setting": "Caki-1; Caki-1, CCK-8, 6 nM", "value": "significantly reduced"}, {"measurement": "expression levels of BUB1B", "setting": "BUB1B [2]", "value": "significantly lower the expression levels of BUB1B"}]}
